Some test systems named below: NCI/ADR-RES; SF-295; HL-60; Malme-3M; 786-0; SK-MEL-2; HOP-62; HT-29; ACHN; HCT-15; SK-MEL-28; SK-MEL-5; OVCAR-3; UACC-257; OVCAR-4; K562; SF-539; HOP-92; SNB-75; M14.
Experiment in all cases: inhibition of tumour cell growth, NCI panel, 48 h

Molecules are shown by their SMILES.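 Tested at 5 concentrations; 48 h exposure; 96-well plates; endpoints linearly interpolated, else capped at highest concentration. The concentration for 50% growth inhibition is given as GI50.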 Active and inactive are the calls of the source. Cut-off read from the data, not from the text of the source: active = GI50 up to about 1.1 µM and inactive = higher.

With `COc1ccc(C2C3=C(COC3=O)Oc3cc4c(cc32)OCO4)cc1OC` (stereo unspecified), the GI50 with NCI/ADR-RES is 0.33 µM (active); in the test on SF-295, 0.716 µM (active); with HL-60 it was 0.208 µM (active); with Malme-3M, 0.682 µM (active); with 786-0, 1.04 µM (active); with SK-MEL-2, 0.679 µM (active). Also, the GI50 is 1.44 µM (inactive) in the test with HOP-62; 0.395 µM (active) in the test with HT-29; 1.82 µM (inactive) with ACHN; 0.397 µM in the test on HCT-15; 1.16 µM (inactive) in the test on SK-MEL-28; 0.489 µM (active) with SK-MEL-5. Moreover, the GI50 in the test with OVCAR-3 was 1.38 µM (inactive); in the test with UACC-257, 6.87 µM (inactive); in the test on OVCAR-4, 37.9 µM (inactive); in the test on K562, 0.337 µM (active); in the test with SF-539, 0.547 µM (active); in the test with HOP-92, 39.4 µM (inactive). Moreover, the GI50 in the test on SNB-75 is 1.82 µM (inactive); in the test on M14, 1.52 µM (inactive).
Consider `COC(=O)c1sc2nc(Nc3ccccc3)/c(=N\c3ccccc3)sc2c1C`, for which the GI50 in the test with NCI/ADR-RES is 80.5 µM (inactive); in the test with SF-295, 51.4 µM (inactive); in the test on HL-60, > 100 µM (inactive); with Malme-3M, > 100 µM (inactive); in the test on 786-0, 34.8 µM (inactive); in the test on SK-MEL-2 it was 48.6 µM (inactive). Besides, the GI50 was 49.8 µM (inactive) in the test with HOP-62; > 100 µM (inactive) in the test with HT-29; 32.7 µM (inactive) in the test on ACHN; more than 100 µM in the test with HCT-15; > 100 µM (inactive) with SK-MEL-28; 88.5 µM (inactive) in the test on SK-MEL-5. Besides, the GI50 with UACC-257 was > 100 µM (inactive); in the test on OVCAR-4 it was 64.7 µM (inactive); in the test with K562 it was > 100 µM (inactive); in the test with SF-539 it was 51.9 µM (inactive); in the test on HOP-92, 31.3 µM (inactive); in the test on SNB-75 it was 25 µM (inactive).
For `CC(C)=CCc1c(O)c(CC=C(C)C)c2oc3c(c(=O)c2c1O)C(C=C(C)C)Oc1cc(O)ccc1-3` (stereo unspecified), the GI50 in the test with NCI/ADR-RES was 12.1 µM (inactive); in the test on SF-295 it was 5.97 µM (inactive); with HL-60 it was 5.85 µM (inactive); in the test with Malme-3M, 20.7 µM (inactive); with 786-0, 6.98 µM (inactive); in the test on SK-MEL-2 it was 2.92 µM (inactive). Moreover, the GI50 with HOP-62 was 12.5 µM (inactive); in the test with HT-29, 10.3 µM (inactive); with ACHN, 4.49 µM (inactive); in the test on HCT-15 it was 5.05 µM; in the test with SK-MEL-28, 7.53 µM (inactive); in the test with SK-MEL-5 it was 8.53 µM (inactive). The GI50 was 4.18 µM (inactive) with OVCAR-3; 14 µM (inactive) in the test on UACC-257; 7.14 µM (inactive) in the test on OVCAR-4; 3.98 µM (inactive) with K562; 11.7 µM (inactive) in the test on SF-539; 13.5 µM (inactive) in the test on HOP-92. Further, the GI50 was 4.07 µM (inactive) with SNB-75 and 7.69 µM (inactive) in the test with M14.
Turning to `Oc1cc(Br)cc2cc(Br)cnc12`, the GI50 in the test on NCI/ADR-RES is 2.72 µM (inactive); in the test with SF-295, 2.64 µM (inactive); with HL-60, 0.22 µM (active); in the test with Malme-3M it was 2.4 µM (inactive); in the test with 786-0, 13.8 µM (inactive); in the test with HOP-62, 12.3 µM (inactive). Further, the GI50 is 27.5 µM (inactive) with HT-29; 1.48 µM (inactive) with ACHN; 1.13 µM with HCT-15; 2.02 µM (inactive) with SK-MEL-28; 2.48 µM (inactive) with SK-MEL-5; 1.58 µM (inactive) with OVCAR-3. In addition, the GI50 in the test with UACC-257 is 3.21 µM (inactive); in the test with OVCAR-4, 1.39 µM (inactive); in the test with K562 it was 1.21 µM (inactive); with SF-539, 3.78 µM (inactive); in the test on HOP-92, 13.7 µM (inactive); with SNB-75, 3.47 µM (inactive). In the test on M14, the GI50 is 2.4 µM (inactive).
With `CCN(CC)C1=Nc2ccccc2-n2c(C)cnc2C1`, the GI50 with NCI/ADR-RES, in the test with SF-295, with HL-60, in the test with Malme-3M, in the test with 786-0 and in the test on SK-MEL-2 was > 100 µM (inactive) in each case. The GI50 was > 100 µM (inactive) with HT-29; > 100 µM (inactive) in the test on ACHN; more than 100 µM with HCT-15; > 100 µM (inactive) with SK-MEL-28; > 100 µM (inactive) in the test on SK-MEL-5; > 100 µM (inactive) in the test on OVCAR-3. Moreover, the GI50 with UACC-257 was > 61.5 µM (inactive); in the test with OVCAR-4, > 100 µM (inactive); with K562 it was > 100 µM (inactive); in the test on SF-539 it was > 100 µM (inactive); in the test with HOP-92, > 100 µM (inactive); in the test with SNB-75, > 100 µM (inactive). Also, the GI50 in the test on M14 is > 100 µM (inactive).
For `CC1C(c2ccccc2)OP(=O)(OC(C#N)c2ccccc2)N1C` (stereo unspecified), the GI50 was > 100 µM (inactive) with NCI/ADR-RES; > 100 µM (inactive) in the test with SF-295; 27.6 µM (inactive) in the test with HL-60; 89.3 µM (inactive) in the test with Malme-3M; > 100 µM (inactive) with 786-0; 48.2 µM (inactive) with SK-MEL-2. Besides, the GI50 is > 100 µM (inactive) in the test on HOP-62; > 100 µM (inactive) with HT-29; > 100 µM (inactive) in the test on ACHN; more than 100 µM in the test on HCT-15; > 100 µM (inactive) in the test on SK-MEL-28; > 100 µM (inactive) in the test on SK-MEL-5. Also, the GI50 in the test on OVCAR-3 was > 100 µM (inactive); in the test on UACC-257 it was 68.9 µM (inactive); in the test on K562, 39.3 µM (inactive); in the test on SF-539, > 100 µM (inactive); in the test on HOP-92, 89.9 µM (inactive); with SNB-75, > 100 µM (inactive). In addition, the GI50 with M14 was 97.7 µM (inactive).
Consider `Cc1ccc(O)c(Cc2nc3ccccc3nc2-c2cccc(Cl)c2)c1`, for which the GI50 with NCI/ADR-RES is 44.1 µM (inactive); in the test with SF-295 it was > 100 µM (inactive); in the test with HL-60 it was 42 µM (inactive); in the test on Malme-3M, > 100 µM (inactive); with 786-0, > 100 µM (inactive); in the test with SK-MEL-2 it was 46.3 µM (inactive). In addition, the GI50 was > 100 µM (inactive) in the test with HOP-62; 44.3 µM (inactive) with HT-29; 49 µM (inactive) with ACHN; 15.4 µM in the test with HCT-15; 40.2 µM (inactive) in the test on SK-MEL-5; 68.9 µM (inactive) in the test on OVCAR-3. The GI50 in the test on UACC-257 was 74.6 µM (inactive); in the test on OVCAR-4 it was 10.6 µM (inactive); with K562, 28.5 µM (inactive); with SF-539, 87.1 µM (inactive); in the test on HOP-92, 12.5 µM (inactive); with M14, > 100 µM (inactive).
With `CC1(C)C=Cc2c(cc(O)c3c(=O)c4cc(Cl)ccc4[nH]c23)O1`, the GI50 was 1.68 µM (inactive) with NCI/ADR-RES; 2.84 µM (inactive) in the test with SF-295; 2.84 µM (inactive) in the test on HL-60; 2.24 µM (inactive) in the test on Malme-3M; 3.84 µM (inactive) with 786-0; 2.69 µM (inactive) with SK-MEL-2. In addition, the GI50 in the test on HOP-62 is 4.08 µM (inactive); in the test with HT-29, 2.4 µM (inactive); in the test on ACHN, 2.42 µM (inactive); in the test with HCT-15 it was 3.27 µM; in the test with SK-MEL-28 it was 4 µM (inactive); in the test with SK-MEL-5, 1.92 µM (inactive). In addition, the GI50 in the test with OVCAR-3 was 0.469 µM (active); in the test on UACC-257, 2.87 µM (inactive); with OVCAR-4, 3.24 µM (inactive); with K562, 1.81 µM (inactive); with SF-539, 4.13 µM (inactive); in the test on HOP-92 it was 2.52 µM (inactive). Moreover, the GI50 in the test with SNB-75 was 4.03 µM (inactive).
As for `COc1ccc(/N=C(/C[S+]([O-])c2ccc(C)cc2)C(F)(F)F)cc1` (stereo unspecified), the GI50 with NCI/ADR-RES is > 100 µM (inactive); in the test with SF-295 it was 56.2 µM (inactive); with HL-60, 19.1 µM (inactive); in the test on Malme-3M, > 100 µM (inactive); in the test on 786-0, > 100 µM (inactive); with SK-MEL-2 it was 50.2 µM (inactive). For the same compound, the GI50 in the test on HT-29 is > 100 µM (inactive); with ACHN, 50.6 µM (inactive); with HCT-15 it was more than 100 µM; with SK-MEL-28 it was > 100 µM (inactive); in the test on SK-MEL-5 it was > 100 µM (inactive); in the test on OVCAR-3, > 100 µM (inactive). The GI50 with UACC-257 is > 100 µM (inactive); in the test on OVCAR-4, 59.7 µM (inactive); in the test on K562, 59.7 µM (inactive); in the test on SF-539, > 100 µM (inactive); with HOP-92, > 100 µM (inactive); in the test with SNB-75, > 100 µM (inactive). The GI50 in the test with M14 was > 100 µM (inactive).
In the case of `C/C(=N\NC(N)=S)c1cccs1.OB(O)c1ccccc1`, the GI50 in the test with NCI/ADR-RES, in the test on SF-295, in the test on HL-60, with Malme-3M, in the test on 786-0 and in the test on HOP-62 was > 100 µM (inactive) in each case. For the same compound, the GI50 in the test on HT-29 is > 100 µM (inactive); with ACHN, > 100 µM (inactive); in the test on HCT-15 it was more than 100 µM; in the test with SK-MEL-28, > 100 µM (inactive); in the test with SK-MEL-5 it was > 100 µM (inactive); in the test with OVCAR-3, > 100 µM (inactive). Also, the GI50 in the test on OVCAR-4, with K562, in the test on SF-539, with HOP-92, with SNB-75 and in the test with M14 was > 100 µM (inactive) throughout.
In the case of `C=CCN1CCN([C@H](c2ccc(C(=O)N(CC)CC)cc2)c2cccc(OC)c2)CC1`, the GI50 in the test with NCI/ADR-RES, in the test on SF-295, with HL-60, with Malme-3M, with 786-0 and in the test on SK-MEL-2 was > 25 µM (inactive) each time. Also, the GI50 in the test on HOP-62 is > 25 µM (inactive); in the test on HT-29 it was > 25 µM (inactive); in the test with ACHN it was > 25 µM (inactive); in the test on HCT-15 it was more than 25 µM; in the test with SK-MEL-28, > 25 µM (inactive); with SK-MEL-5, > 25 µM (inactive). Besides, the GI50 in the test on OVCAR-3 is > 25 µM (inactive); in the test on OVCAR-4, > 25 µM (inactive); with SF-539 it was > 25 µM (inactive); in the test on HOP-92, 16.8 µM (inactive); in the test with M14 it was > 25 µM (inactive).

The values above are taken from ChEMBL document CHEMBL1201862, “PubChem BioAssay data set” (2004).
